Legend:
P3x63Ag8.653 = assay: Cell proliferation analysis (MTT); assay type: cell-based, murine; conditions: Mus musculus, 48 h, read-out: Anti-proliferative activity IC50, P3x63Ag8.653
Method: All tumor cell lines in the current research were grown in a certain growth medium containing 10% FBS and 1% (v/v/v) penicillin–streptomycin–amphotericin at 37 °C in 5% CO2. Cells were seeded into 96-well plates at a density of 8 × 10^3 cells per well for tumor adherent cells and 2 × 10^4 cells per well for tumor-suspended cells in a final volume of 100 μL. After 12 h, 100 μL of various concentrations of compounds was added to each and incubated for 48 h. A 0.5% MTT solution was added per well before the intermixture was incubated for another 4 h, and formazan formed from MTT was extracted by adding […] of DMSO rocking for 15 min. Absorbance was measured at 570 nm using a Spark multimode microplate from Tecan. The IC50 values were calculated according to the inhibition ratios.

MM1.S cells [1] = assay: Cell apoptosis assay (Annexin V-FITC/PI flow cytometry); assay type: cell-based; conditions: 48 h
Method: For the cell apoptosis assay, MM1.S cells were plated in 12-well plates with a density of 6 × 10^5 cells per well and treated with BC-05 (1, 2, and 4 μM), ixazomib (10 nM) or a vehicle (0.5% DMSO) for 48 h after 12 h fixation. Then, cells were harvested, washed with a cold PBS buffer, and resuspended in 500 μL of an annexin V binding buffer. After being stained with 5 μL of Annexin V-FITC and 5 μL of propidium iodide, the cells were detected by a flow cytometer (Beckman Coulter Inc., Sharon Hill, PA, USA).

MM1.S cells [2] = assay: Cell cycle assay (PI flow cytometry); assay type: cell-based; conditions: MM1.S, 1, 2 and 4 µM, 48 h
Method: For the cell cycle assay, MM1.S cells were plated in 6-well plates with a density of 2.5 × 10^6 cells per well. A total of 12 h later, BC-05 (1, 2, and 4 μM), ixazomib (10 nM), or a vehicle (0.5% DMSO) was added, and the mixture was incubated for 48 h. Subsequently, cells were harvested, washed with cold PBS, and fixed in 75% cold ethanol at −20 °C overnight. After washing off the ethanol, fixed cells were treated with RNase A, dyed with propidium iodide solution (20 μg/mL), and incubated in the dark at 37 °C for 30 min. The final assay was analyzed using a Beckman flow cytometer.

[3] = system: macrophage phagocytic activity (MPA) of the reticular endothelial system; assay: Macrophage phagocytosis by carbon clearance test; assay type: in vivo, Kunming mice; conditions: twice a week for two weeks; for Carbon Clearance Index (K): Ctrl 0.057 ± 0.0061; for Phagocytosis Index (α): Ctrl 5.36 ± 0.19
Method: The animal experiments were conducted under the guidelines of the “Regulations for the Administration of Affairs Concerning Experimental Animals” (revised 2017, State Council No. 676). Kunming mice were randomly divided into control groups and treatment groups. After oral administration of test compounds twice a week for two weeks, the mice were injected with carbon ink suspension (Indian Ink, Camel) (100 μL/10 g of body weight) via the tail vein. Two and ten minutes after the injection of carbon suspension, the blood samples were collected from a retro-orbital vein. A total of 25 μL of a blood sample was directly added into 2 mL of 0.1% sodium carbonate solution. The absorbance of the sample was measured at 600 nm using a UV-visible spectrophotometer. The K value was calculated by the formula Log (OD2) − Log (OD10)/(T2 − T1), where OD2 and OD10 were the absorbance of blood at 2 and 10 min, respectively; T2 is the last time point of blood collection; T1 is the first time point of blood collection. The α value was calculated by the formula (k^1/3 × body weight)/(liver weight + spleen weight).

[4] = system: subcutaneous P3x63Ag8.653 tumor; assay: In vivo P3x63Ag8.653 tumor transplant model; design: species or system mice
Method: The animal experiments were conducted under the guidelines of the “Regulations for the Administration of Affairs Concerning Experimental Animals” (revised 2017, State Council No. 676). For the P3x63Ag8.653 tumor development, male mice were subcutaneously injected with 200 μL murine P3x63Ag8.653 cells with a density of 1 × 10^7/mL. On the eighth day after injection, the transplanted mice were randomized into treatment and control groups. The tested compounds were administrated orally at the prescribed dose biweekly for two weeks. After two weeks of administration, mice were executed, and the tumor tissues were dissected and weighed. T/C was calculated according to the following formula: T/C = the mean RTV of the treated group/the mean RTV of the control group, where RTV is the relative tumor volume = Vt/V0 (Vt, the tumor volume measured at the end of treatment; V0, the tumor volume measured at the beginning of treatment).

Structure (SMILES): CC(C)C[C@H](NC(=O)[C@@H](O)[C@H](N)Cc1ccccc1)B1OC(=O)C(CC(=O)O)(CC(=O)O)O1 [BC-05, 2,2′-(2-((R)-1-((2S,3R)-3-amino-2-hydroxy-4-phenylbutanamido)-3-methylbutyl)-5-oxo-1,3,2-dioxaborolane-4,4-diyl)diacetic acid]
- IC50 (P3x63Ag8.653): 17.7 ± 0.75 µM
- cell apoptosis (MM1.S cells [1]; 1 µM): 12.4%
- cell apoptosis (MM1.S cells [1]; 2 µM): 73.1%
- cell apoptosis (MM1.S cells [1]; 4 µM): 88.0%
- cell cycle arrest (MM1.S cells [2]): blocks MM1.S cells in the Sub-G1 phase
- Carbon Clearance Index (K) ([3]; 0.006 mmol/kg oral): 0.066 ± 0.0077
- Phagocytosis Index (α) ([3]; 0.006 mmol/kg oral): 6.60 ± 0.26
- Carbon Clearance Index (K) ([3]; 0.008 mmol/kg oral): 0.076 ± 0.0016
- Phagocytosis Index (α) ([3]; 0.008 mmol/kg oral): 6.61 ± 0.05
- T/C (relative tumor volume) ([4]; 0.008 mmol/kg oral, two weeks): 31.2%
- body weight loss and side effects ([4]; tumor-bearing mice, during oral administration): No obvious body weight loss and discernible side effects

Source: paper PMC10489073 (Molecules, 2023)
